Measured values published in PMC12473014, “Granzyme B PET Imaging Enables Early Assessment of Immunotherapy Response in a Humanized Melanoma Mouse Model” (Pharmaceuticals, 2025).
Like-named read-outs stand apart in the source and are kept apart here. Values belong to the compound of their own block, whether it stands above or below them.

Assays:
active human GZB [1] = target: T1, active human GZB (Homo sapiens, UniProt P10144); assay: Fluorometric human GZB enzymatic inhibition assay (ab157403); format: biochemical; design: Each dilution was combined with 0.1 µg/µL of active GZB protein (ab285779); purchased ab285779; details: 0.1 µg/µL active GZB, 5000 to 0.00002048 nM, 50 µL, duplicate, kinetic mode after 90 min at 27 °C, CI: 2.95–5.98, read-out: inhibition constant (Ki)
Description: (§1) NOTA-CYT-200 was synthesized (CytoSite Biopharma, Sudbury, MA, USA) with a high chemical purity (>95%) and characterized using mass spectrometry. We performed a fluorometric human GZB activity assay (ab157403) to determine the inhibitor constant (Ki) of NOTA-CYT-200 for active human GZB enzyme activity in vitro. NOTA-CYT-200 was serially diluted with GZB assay buffer, starting from 5000 to 0.00002048 nanomolar. Each dilution was combined with 0.1 µg/µL of active GZB protein (ab285779) and the provided fluorophore. Each well contained a total volume of 50 µL, and all the samples were tested in duplicate using a microplate reader in kinetic mode (BioTek Cytation5, Winooski, VT, USA) after 90 min of incubation at 27 °C. The in vivo specificity of NOTA-CYT-200 labeled with 68gallium (^68Ga-NOTA-CYT-200) for the active human GZB protein was evaluated in non-tumor-bearing naive NSG mice (n = 8) following a subcutaneous injection of 80 µL of Matrigel alone (Corning™ Matrigel™ Membrane Matrix) or 65 µL of Matrigel containing 15 µL of active human GZB protein (0.05 µg/µL, totaling 0.75 µg GZB) into each animal’s shoulder. […] The uptake of ^68Ga-NOTA-CYT-200, measured as standard uptake values (SUVs) within the implanted regions, was assessed using the VivoQuant™ software, version 4.0 (InVicro, Needham, MA, USA). […]

in vivo = assay: in vivo; design: species or system NSG mice; details: mouse; for tissue uptake at 1 h: NSG, iv, total radioactivity
Description: The ^68Ga-NOTA-CYT-200 biodistribution was evaluated for each treatment group four days after the initial dose. Major organs, such as the tumor, heart, lungs, liver, spleen, stomach, pancreas, intestines, kidneys, muscles, bones, skin, and brain from each mouse, were excised exactly one hour after the i.v. administration of 52.83 µCi ± 0.87 (controls, n = 3), 41.83 µCi ± 5.93 (mono, n = 4), or 34.65 µCi ± 3.82 (combination, n = 4) ^68Ga-NOTA-CYT-200. Each organ was weighed individually before measuring the activity with an automatic gamma counter (PerkinElmer Wallac Wizard 2480, Waltham, MA, USA).

active human GZB protein = assay: PET uptake in subcutaneous Matrigel implants with or without active GZB (in vivo specificity); details: n = 8, SUV normalized to blood pool, 1 h after i.v. 4.39 MBq, mean ± SEM
Description: as §1

active human GZB [2] = target: T1, active human GZB; assay: PET/CT intestinal/colon uptake (CBR) in humanized NSG mice with G361 melanoma; format: in vivo; details: mean ± SEM
Description: (§2) Human melanoma G361 (ATCC®) cells were cultured in McCoy’s Medium (Thermo-Fisher, Waltham, MA, USA) supplemented with 10% fetal bovine serum (Thermo-Fisher) and 1% penicillin–streptomycin (Thermo-Fisher) at 37 °C with 5% CO2. The mice were then subcutaneously (s.c.) implanted with 2 × 10^6 G361 cells suspended in Matrigel and 100 µL of phosphate-buffered saline (Sigma-Aldrich, St. […] To estimate the tumor volume, both the longest and shortest perpendicular diameters were measured. These measurements were then combined using a standard method commonly employed in preclinical studies to approximate the tumor volume, providing a reliable estimate of the three-dimensional tumor size. Four days after tumor implantation, the tumors measured 336 ± 38 mm^3. The mice were then randomly assigned to receive three doses at three-day intervals of either 200 µg/100 µg of an anti-PD1/CTLA4 combination therapy (combination group, n = 15), 200 µg of anti-PD1 as a monotherapy (monotherapy group, n = 15), or a vehicle solution (controls, n = 12) via an intraperitoneal (i.p.) injection. A subset of mice (combination: n = 8, monotherapy: n = 9, controls: n = 6) underwent PET/CT imaging before treatment (baseline), as well as 4 days (timepoint 2), 1 week (timepoint 3), and 2 weeks (timepoint 4) after the treatment began (Figure 7). ^68Gallium was obtained by eluting a ^68Ga/^68Ge generator (Eckert and Ziegler, Berlin, Germany) with 0.1 molar HCl. A total of 2 mL of eluted ^68gallium was mixed with 100 µL of NOTA-CYT-200, stored in a stock solution of 1 mg/mL of metal-free water (OmniTrace Ultra, Millipore, Burlington, MA, USA) and two molar HEPES buffer to adjust the pH to 3.5–4.0. The reaction was incubated at 95 °C for 10 min. The mixture was then adjusted to a pH of 7.0 using sodium hydroxide (NaOH) before being administered intravenously via the tail vein. A total of 3.96 MBq ± 0.81 of ^68Ga-NOTA-CYT-200 was injected 60 ± 5 min prior to PET/CT acquisition. The PET/CT images were acquired in static mode using a small animal Argus PET/CT scanner (Sedecal, Madrid, Spain) in two bed positions over 20 min. The PET images were reconstructed using (2 iterations and 16 subsets) 2D-OSEM and corrected for randoms and scatter. Post-acquisition, the PET/CT images were analyzed by two blinded investigators using the VivoQuant™ software, version 4.0 (InVicro). Standard uptake values (SUVs) for the tumor, liver, and colon were normalized to the blood pool activity measured by drawing a region of interest around the left ventricle of the heart, yielding target-to-background ratios (TBR for tumor, LBR for liver, and CBR for colon). This normalization accounts for the nonspecific background signal and enables a comparison of the uptake across the groups and imaging timepoints. Prism (version 9.2; GraphPad) was used to perform quantitative data analyses. The data are presented as the mean ± SEM. The means of the two groups were compared using unpaired Student’s t-tests when appropriate.

active human GZB [3] = target: T1, active human GZB; format: in vivo; details: for mean TBR: mean ± SEM
Description: as §2

active human GZB [4] = target: T1, active human GZB; assay: PET/CT liver uptake (LBR) in humanized NSG mice with G361 melanoma; format: in vivo; details: for liver-to-blood ratio (LBR): n = 8, mean ± SEM
Description: as §2

T1 sequence (P10144 21-247): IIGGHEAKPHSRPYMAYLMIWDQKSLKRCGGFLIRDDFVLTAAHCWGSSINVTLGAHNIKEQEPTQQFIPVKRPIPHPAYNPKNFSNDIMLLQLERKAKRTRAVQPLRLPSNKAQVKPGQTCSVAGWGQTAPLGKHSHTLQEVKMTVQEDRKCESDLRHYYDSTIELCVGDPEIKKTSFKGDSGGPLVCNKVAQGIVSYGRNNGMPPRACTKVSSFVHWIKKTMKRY

Ki (active human GZB [1]): 4.2 nM
SMILES: CC[C@H](C)[C@H](NC(=O)CNC(=O)CNC(=O)[C@H](CCC(=O)O)NC(=O)Cc1ccc(CC2CN(CC(=O)O)CCN(CC(=O)O)CCN2CC(=O)O)cc1)C(=O)N[C@H]1CCc2cccc3c2N(C1=O)[C@H](C(=O)N[C@H]1CC(=O)OC1O)C3 (stereo partly shown) [NOTA-CYT-200]

tissue uptake at 1 h (in vivo; 41.83 uCi, kidney uptake): 1.47 ± 0.37 %ID/g
tissue uptake at 1 h (in vivo; 41.83 uCi, tumor uptake): 0.25 ± 0.06 %ID/g
tissue uptake at 1 h (in vivo; 52.83 uCi, intestinal uptake): 0.17 ± 0.13 %ID/g
tissue uptake at 1 h (in vivo; 52.83 uCi, kidney uptake): 1.32 ± 0.84 %ID/g
tissue uptake at 1 h (in vivo; 52.83 uCi, tumor uptake): 0.12 ± 0.03 %ID/g
intestinal/colon-to-blood ratio (CBR) (active human GZB [2]; baseline, combination, n = 8): 3.5 ± 0.62
intestinal/colon-to-blood ratio (CBR) (active human GZB [2]; baseline, controls, n = 6): 2.11 ± 0.56
intestinal/colon-to-blood ratio (CBR) (active human GZB [2]; baseline, monotherapy, n = 9): 2.68 ± 0.43
intestinal/colon-to-blood ratio (CBR) (active human GZB [2]; day 4, combination, n = 8, p = 0.029 vs baseline): 6.81 ± 1.21
intestinal/colon-to-blood ratio (CBR) (active human GZB [2]; day 4, monotherapy, n = 9, p = 0.07 vs baseline): 5.41 ± 0.98
intestinal/colon-to-blood ratio (CBR) (active human GZB [2]; day 7, combination, n = 8, p = 0.96 vs baseline): 6.21 ± 1.23
intestinal/colon-to-blood ratio (CBR) (active human GZB [2]; day 7, monotherapy, n = 9, p = 0.8 vs baseline): 3.75 ± 0.57
intestinal/colon-to-blood ratio (CBR) (active human GZB [2]; day 14, combination, n = 8, p = 0.99 vs baseline): 4.09 ± 0.97
intestinal/colon-to-blood ratio (CBR) (active human GZB [2]; day 14, monotherapy, n = 9, p = 0.99 vs baseline): 2.25 ± 0.36
mean TBR (active human GZB [3]; baseline, combination (anti-PD1/CTLA4), n = 8): 1.47 ± 0.2
mean TBR (active human GZB [3]; baseline, monotherapy (anti-PD1), n = 9): 1.25 ± 0.17
off-target binding in tumors of the control group (active human GZB [3]; control group (vehicle)): some off-target binding
highest TBR on day 4 or day 7 (active human GZB [3]; controls, n = 6): 1.75 ± 0.39
TBR, responder analysis (active human GZB [3]; day 4, treatment non-responders (TNRs), n = 6, p = 0.02 vs controls): 2.7 ± 0.9
TBR, responder analysis (active human GZB [3]; day 4, treatment responders (TRs), n = 3, p < 0.0001 vs controls): 4.0 ± 1.2
mean TBR (active human GZB [3]; day 4 after treatment start, combination (anti-PD1/CTLA4), n = 8, p < 0.0001 vs controls, p = 0.027 vs monotherapy): 3.88 ± 0.47
mean TBR (active human GZB [3]; day 4 after treatment start, controls (vehicle), n = 6): 1.15 ± 0.13
mean TBR (active human GZB [3]; day 4 after treatment start, monotherapy (anti-PD1), n = 9, p = 0.0005 vs controls): 2.84 ± 0.3
mean TBR (active human GZB [3]; day 7, combination (anti-PD1/CTLA4), n = 8, p = 0.0052 vs monotherapy, p = 0.0003 vs controls): 3.5 ± 0.48
mean TBR (active human GZB [3]; day 7, controls (vehicle), n = 6): 1.69 ± 0.2
mean TBR (active human GZB [3]; day 7, monotherapy (anti-PD1), n = 9, p = 0.59 vs controls): 2.14 ± 0.11
mean TBR (active human GZB [3]; day 14, combination (anti-PD1/CTLA4), n = 8, p = 0.01 vs monotherapy, p = 0.05 vs controls): 3.05 ± 0.43
mean TBR (active human GZB [3]; day 14, controls (vehicle), n = 6): 1.97 ± 0.28
mean TBR (active human GZB [3]; day 14, monotherapy (anti-PD1), n = 9, p = 0.88 vs controls): 1.75 ± 0.15
highest TBR on day 4 or day 7 (active human GZB [3]; treatment non-responders (TNRs), n = 6, p = 0.175 vs controls): 2.73 ± 0.88
highest TBR on day 4 or day 7 (active human GZB [3]; treatment responders (TRs), n = 3, p = 0.0002 vs controls, p = 0.0109 vs TNRs): 4.28 ± 1.20
liver-to-blood ratio (LBR) (active human GZB [4]; baseline, combination): 2.98 ± 0.34
liver-to-blood ratio (LBR) (active human GZB [4]; day 4, combination, p < 0.0001 vs baseline): 6.93 ± 1.04
liver-to-blood ratio (LBR) (active human GZB [4]; day 7, combination, p < 0.0001 vs baseline): 7.16 ± 1.03
liver-to-blood ratio (LBR) (active human GZB [4]; day 14, combination, p = 0.91 vs baseline, p = 0.0004 and 0.0001 vs days 4 and 7): 3.52 ± 0.27
LBR change versus baseline (active human GZB [4]; days 7 and 14, monotherapy, n = 9, p = 0.93 and p = 0.71): remained comparable to baseline
SMILES: CC[C@H](C)[C@H](NC(=O)CNC(=O)CNC(=O)[C@H](CCC(=O)O)NC(=O)Cc1ccc(CC2CN(CC(=O)O)CCN(CC(=O)O)CCN2CC(=O)O)cc1)C(=O)N[C@H]1CCc2cccc3c2N(C1=O)[C@H](C(=O)N[C@H]1CC(=O)OC1O)C3 (stereo partly shown) [^68Ga-NOTA-CYT-200, metal not drawn]
main organ of tracer elimination (in vivo): kidney as the main organ responsible for tracer elimination
radiotracer uptake in implant (active human GZB protein; Matrigel containing active GZB protein (0.75 µg), p = 0.0045 vs Matrigel without protein): 6.18 ± 2.92
radiotracer uptake in implant (active human GZB protein; Matrigel without the protein): 2.48 ± 1.01
inhibition of the inflammatory response to immunotherapy by tracer injection (active human GZB [3]; in vivo): did not observe any obvious inhibition of the inflammatory response to immunotherapy
LBR change versus baseline (active human GZB [4]; day 4, monotherapy, n = 9, p = 0.023): significant LBR increase on day 4 versus baseline
LBR change versus baseline (active human GZB [4]; post-treatment timepoints, controls, n = 6, p 0.43 to 0.71): none of the post-treatment LBR values were significantly different from baseline
